From patent US20230065740A1, “CYCLIN-DEPENDENT KINASE INHIBITORS” (SPV THERAPEUTICS INC., priority 2018, published 2023) come the findings set out here.

The target in one assay is CDK4-CYCLIND1 (Homo sapiens, UniProt P11802). In words: Microfluidic LabChip kinase inhibition assay, CDK4-CyclinD1. To be noted: CDK4 IC50 (μM), Table 2; 200 μM ATP, 1 nM enzyme.
A further assay addresses T1, CDK6-CYCLIND3 (Homo sapiens, UniProt Q00534).
T1 construct: purchased Carna
Kind of assay: Microfluidic LabChip kinase inhibition assay, CDK6-CyclinD3. Format: biochemical. The conditions noted are these: Table 2; 300 μM ATP, 2 nM enzyme; read-out: CDK6 IC50.

The structures appear in SMILES notation.

Chain of CDK4-CYCLIND1 (P11802 whole entry): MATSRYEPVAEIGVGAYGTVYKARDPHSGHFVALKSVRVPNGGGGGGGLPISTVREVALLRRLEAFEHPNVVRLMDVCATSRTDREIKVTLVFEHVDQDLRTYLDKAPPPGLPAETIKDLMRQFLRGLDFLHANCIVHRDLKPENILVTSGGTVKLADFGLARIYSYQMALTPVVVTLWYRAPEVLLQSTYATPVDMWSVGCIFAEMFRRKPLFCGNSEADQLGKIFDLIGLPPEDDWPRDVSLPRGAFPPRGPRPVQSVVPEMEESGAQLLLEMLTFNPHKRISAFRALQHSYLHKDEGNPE
Chain of CDK4-CYCLIND1 (P24385 whole entry partner): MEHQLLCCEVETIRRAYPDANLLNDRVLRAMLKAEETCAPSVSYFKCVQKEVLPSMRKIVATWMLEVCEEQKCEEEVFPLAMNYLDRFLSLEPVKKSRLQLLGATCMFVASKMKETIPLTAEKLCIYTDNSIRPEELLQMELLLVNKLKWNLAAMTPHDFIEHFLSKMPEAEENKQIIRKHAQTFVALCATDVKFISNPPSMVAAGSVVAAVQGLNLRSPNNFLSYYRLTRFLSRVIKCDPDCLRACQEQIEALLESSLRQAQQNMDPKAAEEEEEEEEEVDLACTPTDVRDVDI
T1 sequence (Q00534 whole entry): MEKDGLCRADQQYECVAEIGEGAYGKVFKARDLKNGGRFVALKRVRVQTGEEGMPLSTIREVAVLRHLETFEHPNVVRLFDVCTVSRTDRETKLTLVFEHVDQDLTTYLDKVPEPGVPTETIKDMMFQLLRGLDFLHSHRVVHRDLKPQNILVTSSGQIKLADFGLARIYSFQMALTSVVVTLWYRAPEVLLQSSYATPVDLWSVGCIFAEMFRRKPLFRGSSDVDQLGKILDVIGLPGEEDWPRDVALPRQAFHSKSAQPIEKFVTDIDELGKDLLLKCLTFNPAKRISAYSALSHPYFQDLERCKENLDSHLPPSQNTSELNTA
T1 sequence (P30281 whole entry partner): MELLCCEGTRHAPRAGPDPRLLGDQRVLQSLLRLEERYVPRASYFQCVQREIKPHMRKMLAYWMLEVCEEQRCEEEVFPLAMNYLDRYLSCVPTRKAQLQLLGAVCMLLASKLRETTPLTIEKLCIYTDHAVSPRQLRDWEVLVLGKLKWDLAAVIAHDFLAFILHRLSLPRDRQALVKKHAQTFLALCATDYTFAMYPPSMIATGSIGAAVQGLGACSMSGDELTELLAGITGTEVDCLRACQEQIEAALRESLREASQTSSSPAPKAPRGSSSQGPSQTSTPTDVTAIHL

As a reminder, the IC50 is the concentration needed to halve the response being measured. Turning to `O=C1N(Cc2ccccc2)CCCC12Cc1cnc(Nc3ccc(N4CCNCC4)cn3)nc1N2C1CCCC1` (centres unmarked) [Compound C27, 1-benzyl-7′-cyclopentyl-2′-((5-(piperazin-1-yl)pyridin-2-yl)amino)-5′,7′-dihydrospiro[piperidine-3,6′-pyrrolo[2,3-d]pyrimidin]-2-one], the 50% inhibitory concentration (IC50) on CDK4-CYCLIND1 and at CDK6-CYCLIND3 was over 30 µM each time.
`CN1CCN(c2ccc(Nc3ncc4c(n3)N(C3CCCC3)C3(CCCN(Cc5ccccc5)C3=O)C4)nc2)CC1` (centres unmarked) [Compound C28, 1-benzyl-7′-cyclopentyl-2′-((5-(4-methylpiperazin-1-yl)pyridin-2-yl)amino)-5′,7′-dihydrospiro[piperidine-3,6′-pyrrolo[2,3-d]pyrimidin]-2-one]: the IC50 against CDK4-CYCLIND1 and at CDK6-CYCLIND3 was over 30 µM throughout.
For `COc1ccc(CN2CCC3(Cc4cnc(Nc5ccc(N6CCNCC6)cn5)nc4N3C3CCCC3)C2=O)cc1` (centres unmarked) [Compound C29, 7′-cyclopentyl-1-(4-methoxybenzyl)-2′-((5-(piperazin-1-yl)pyridin-2-yl)amino)-5′,7′-dihydrospiro[pyrrolidine-3,6′-pyrrolo[2,3-d]pyrimidin]-2-one], the half-inhibitory concentration (IC50) on CDK4-CYCLIND1 is 7.78 µM; at CDK6-CYCLIND3, over 30 µM.
For `COc1ccc(CN2CCC3(Cc4cnc(Nc5ccc(N6CCN(C)CC6)cn5)nc4N3C3CCCC3)C2=O)cc1` (centres unmarked) [Compound C30, 7′-cyclopentyl-1-(4-methoxybenzyl)-2′-((5-(4-methylpiperazin-1-yl)pyridin-2-yl)amino)-5′,7′-dihydrospiro[pyrrolidine-3,6′-pyrrolo[2,3-d]pyrimidin]-2-one], the figures for the IC50 against CDK4-CYCLIND1 and at CDK6-CYCLIND3 were 8.21 µM and over 30 µM, respectively.
For `COc1ccc(CN2CCC3(Cc4cnc(Nc5ccc(N6CCN(C(C)C)CC6)cn5)nc4N3C3CCCC3)C2=O)cc1` (centres unmarked) [Compound C31, 7′-cyclopentyl-2′-((5-(4-isopropylpiperazin-1-yl)pyridin-2-yl)amino)-1-(4-methoxybenzyl)-5′,7′-dihydrospiro[pyrrolidine-3,6′-pyrrolo[2,3-d]pyrimidin]-2-one], the IC50 is 7.28 µM on CDK4-CYCLIND1 and over 30 µM on CDK6-CYCLIND3.
As for `COc1ccc(CN2CCC3(Cc4cnc(Nc5ccc(OCCN(C)C)cn5)nc4N3C3CCCC3)C2=O)cc1` (centres unmarked) [Compound C32, 7′-cyclopentyl-2′-((5-(2-(dimethylamino)ethoxy)pyridin-2-yl)amino)-1-(4-methoxybenzyl)-5′,7′-dihydrospiro[pyrrolidine-3,6′-pyrrolo[2,3-d]pyrimidin]-2-one], the IC50 against CDK4-CYCLIND1 is 10.5 µM; on CDK6-CYCLIND3, over 30 µM.
Consider `O=C1NCCC12Cc1cnc(Nc3ccc(N4CCNCC4)cn3)nc1N2C1CCCC1` (centres unmarked) [Compound C33, 7′-cyclopentyl-2′-((5-(piperazin-1-yl)pyridin-2-yl)amino)-5′,7′-dihydrospiro[pyrrolidine-3,6′-pyrrolo[2,3-d]pyrimidin]-2-one], for which the IC50 worked out at 0.694 µM against CDK4-CYCLIND1 and 2.08 µM on CDK6-CYCLIND3.
For `CN1CCN(c2ccc(Nc3ncc4c(n3)N(C3CCCC3)C3(CCNC3=O)C4)nc2)CC1` (centres unmarked) [Compound C34, 7′-cyclopentyl-2′-((5-(4-methylpiperazin-1-yl)pyridin-2-yl)amino)-5′,7′-dihydrospiro[pyrrolidine-3,6′-pyrrolo[2,3-d]pyrimidin]-2-one], the 50% inhibitory concentration (IC50) at CDK4-CYCLIND1 was 1.16 µM; on CDK6-CYCLIND3, 3.7 µM.
Turning to `O=C1NCCCC12Cc1cnc(Nc3ccc(N4CCNCC4)cn3)nc1N2C1CCCC1` (centres unmarked) [Compound C35, 7′-cyclopentyl-2′-((5-(piperazin-1-yl)pyridin-2-yl)amino)-5′,7′-dihydrospiro[piperidine-3,6′-pyrrolo[2,3-d]pyrimidin]-2-one], the IC50 against CDK4-CYCLIND1 is 19.6 µM; on CDK6-CYCLIND3 it was over 30 µM.
Regarding `CN1CCN(c2ccc(Nc3ncc4c(n3)N(C3CCCC3)C3(CCCNC3=O)C4)nc2)CC1` (centres unmarked) [Compound C36, 7′-cyclopentyl-2′-((5-(4-methylpiperazin-1-yl)pyridin-2-yl)amino)-5′,7′-dihydrospiro[piperidine-3,6′-pyrrolo[2,3-d]pyrimidin]-2-one], the values for the concentration for half-maximal inhibition (IC50) at CDK4-CYCLIND1 and on CDK6-CYCLIND3 were 29.3 µM and over 30 µM, respectively.
For `CC(C)N1CCN(c2ccc(Nc3ncc4c(n3)N(C3CCCC3)C3(CCCNC3=O)C4)nc2)CC1` (centres unmarked) [Compound C37, 7′-cyclopentyl-2′-((5-(4-isopropylpiperazin-1-yl)pyridin-2-yl)amino)-5′,7′-dihydrospiro[piperidine-3,6′-pyrrolo[2,3-d]pyrimidin]-2-one] the same measures were over 30 µM and over 30 µM.
For `CC(C)N1CCN(c2ccc(Nc3ncc4c(n3)N(C3CCCC3)C3(CCNC3=O)C4)nc2)CC1` (centres unmarked) [Compound C38, 7′-cyclopentyl-2′-((5-(4-isopropylpiperazin-1-yl)pyridin-2-yl)amino)-5′,7′-dihydrospiro[pyrrolidine-3,6′-pyrrolo[2,3-d]pyrimidin]-2-one], the values for the IC50 on CDK4-CYCLIND1 and on CDK6-CYCLIND3 were 0.631 µM and 2.99 µM, respectively.
For `CN1CCN(c2ccc(Nc3ncc4c(n3)N(C3CCCC3)C3(CCN(Cc5ccccc5)C3=O)C4)cc2F)CC1` (centres unmarked) [Compound C39, 1-benzyl-7′-cyclopentyl-2′-((3-fluoro-4-(4-methylpiperazin-1-yl)phenyl)amino)-5′,7′-dihydrospiro[pyrrolidine-3,6′-pyrrolo[2,3-d]pyrimidin]-2-one] the same measures were 0.53 µM and 2.55 µM.
For `CN1CCN(c2ccc(Nc3ncc4c(n3)N(C3CCCC3)C3(CCCN(Cc5ccccc5)C3=O)C4)cc2F)CC1` (centres unmarked) [Compound C40, 1-benzyl-7′-cyclopentyl-2′-((3-fluoro-4-(4-methylpiperazin-1-yl)phenyl)amino)-5′,7′-dihydrospiro[piperidine-3,6′-pyrrolo[2,3-d]pyrimidin]-2-one], the 50% inhibitory concentration (IC50) against CDK4-CYCLIND1 turned out to be 2.96 µM; on CDK6-CYCLIND3 it was 10.7 µM.
For `CN1CCN(c2ccc(Nc3ncc4c(n3)N(C3CCCC3)C3(CCN(Cc5ccccc5)C3=O)C4)c(F)c2)CC1` (centres unmarked) [Compound C41, 1-benzyl-7′-cyclopentyl-2′-((2-fluoro-4-(4-methylpiperazin-1-yl)phenyl)amino)-5′,7′-dihydrospiro[pyrrolidine-3,6′-pyrrolo[2,3-d]pyrimidin]-2-one] the same measures were 5.98 µM and 12.8 µM.
`CN1CCN(c2ccc(Nc3ncc4c(n3)N(C3CCCC3)C3(CCCN(Cc5ccccc5)C3=O)C4)c(F)c2)CC1` (centres unmarked) [Compound C42, 1-benzyl-7′-cyclopentyl-2′-((2-fluoro-4-(4-methylpiperazin-1-yl)phenyl)amino)-5′,7′-dihydrospiro[piperidine-3,6′-pyrrolo[2,3-d]pyrimidin]-2-one]: the figures for the concentration for half-maximal inhibition (IC50) against CDK4-CYCLIND1 and at CDK6-CYCLIND3 were 4.46 µM and 12.1 µM, respectively.
Regarding `O=C1NCCC12Cc1cnc(Nc3ccc(N4CCNCC4)cc3)nc1N2C1CCCC1` (centres unmarked) [Compound C43, 7′-cyclopentyl-2′-((4-(piperazin-1-yl)phenyl)amino)-5′,7′-dihydrospiro[pyrrolidine-3,6′-pyrrolo[2,3-d]pyrimidin]-2-one], the values for the IC50 against CDK4-CYCLIND1 and at CDK6-CYCLIND3 were 0.0633 µM and 0.423 µM, respectively.
For `O=C1NCCCC12Cc1cnc(Nc3cc(C(F)(F)F)c(N4CCNCC4)cn3)nc1N2C1CCCC1` (centres unmarked) [Compound C44, 7′-cyclopentyl-2′-((5-(piperazin-1-yl)-4-(trifluoromethyl)pyridin-2-yl)amino)-5′,7′-dihydrospiro[piperidine-3,6′-pyrrolo[2,3-d]pyrimidin]-2-one] the same measures were over 30 µM and over 30 µM.
The matching figures for `CN1CCN(c2ccc(Nc3ncc4c(n3)N(C3CCCC3)C3(CCNC3=O)C4)cc2)CC1` (centres unmarked) [Compound C45, 7′-cyclopentyl-2′-((4-(4-methylpiperazin-1-yl)phenyl)amino)-5′,7′-dihydrospiro[pyrrolidine-3,6′-pyrrolo[2,3-d]pyrimidin]-2-one]: 0.105 µM and 0.574 µM.
With `CC(C)N1CCN(c2ccc(Nc3ncc4c(n3)N(C3CCCC3)C3(CCNC3=O)C4)cc2)CC1` (centres unmarked) [Compound C46, 7′-cyclopentyl-2′-((4-(4-isopropylpiperazin-1-yl)phenyl)amino)-5′,7′-dihydrospiro[pyrrolidine-3,6′-pyrrolo[2,3-d]pyrimidin]-2-one], the IC50 against CDK4-CYCLIND1 is 0.0701 µM; at CDK6-CYCLIND3, 0.394 µM.
Regarding `O=C1NCCC12Cc1cnc(Nc3ccc(N4CCNCC4)c(F)c3)nc1N2C1CCCC1` (centres unmarked) [Compound C47, 7′-cyclopentyl-2′-((3-fluoro-4-(piperazin-1-yl)phenyl)amino)-5′,7′-dihydrospiro[pyrrolidine-3,6′-pyrrolo[2,3-d]pyrimidin]-2-one], the IC50 stood at 0.0315 µM against CDK4-CYCLIND1 and 0.179 µM at CDK6-CYCLIND3.
The matching figures for `CN1CCN(c2ccc(Nc3ncc4c(n3)N(C3CCCC3)C3(CCNC3=O)C4)cc2F)CC1` (centres unmarked) [Compound C48, 7′-cyclopentyl-2′-((3-fluoro-4-(4-methylpiperazin-1-yl)phenyl)amino)-5′,7′-dihydrospiro[pyrrolidine-3,6′-pyrrolo[2,3-d]pyrimidin]-2-one]: 0.0161 µM and 0.129 µM.
With `CC(C)N1CCN(c2ccc(Nc3ncc4c(n3)N(C3CCCC3)C3(CCNC3=O)C4)cc2F)CC1` (centres unmarked) [Compound C49, 7′-cyclopentyl-2′-((3-fluoro-4-(4-isopropylpiperazin-1-yl)phenyl)amino)-5′,7′-dihydrospiro[pyrrolidine-3,6′-pyrrolo[2,3-d]pyrimidin]-2-one], the half-maximal inhibitory concentration (IC50) against CDK4-CYCLIND1 was determined as 0.0298 µM; on CDK6-CYCLIND3, 0.175 µM.
Take `O=C1NCCC12Cc1cnc(Nc3ccc(N4CCNCC4)cc3F)nc1N2C1CCCC1` (centres unmarked) [Compound C50, 7′-cyclopentyl-2′-((2-fluoro-4-(piperazin-1-yl)phenyl)amino)-5′,7′-dihydrospiro[pyrrolidine-3,6′-pyrrolo[2,3-d]pyrimidin]-2-one]: the figures for the IC50 against CDK4-CYCLIND1 and at CDK6-CYCLIND3 were 0.888 µM and 4.21 µM, respectively.
Regarding `CN1CCN(c2ccc(Nc3ncc4c(n3)N(C3CCCC3)C3(CCNC3=O)C4)c(F)c2)CC1` (centres unmarked) [Compound C51, 7′-cyclopentyl-2′-((2-fluoro-4-(4-methylpiperazin-1-yl)phenyl)amino)-5′,7′-dihydrospiro[pyrrolidine-3,6′-pyrrolo[2,3-d]pyrimidin]-2-one], the concentration for half-maximal inhibition (IC50) against CDK4-CYCLIND1 and on CDK6-CYCLIND3 was over 30 µM throughout.
